# Data published in ChEMBL document CHEMBL3885861, “Open TG-GATES”.
# Species on record: Rattus norvegicus
# Assay: Open TG-GATES - Regimen: Daily Repeat
# Assay type: toxicity, organism-based, Sprague-Dawley
# Parameters: regimen Daily Repeat, gender Male, age 6 weeks
# Settings: in vivo, po, 300 mg/kg, route gavage, dose level Low; for APTT / Bas / Eos / Fbg / Hb / Ht / Lym / MCH / MCHC / MCV / Mono / Neu / PT / Plat / RBC / Ret / WBC: tissue Blood; for KIDNEY_L / KIDNEY_R / KIDNEY_TOTAL: tissue Kidney; for LIVER: tissue Liver; for A/G / ALP / ALT / AST / BUN / CRE / Ca / Cl / DBIL / GLC / IP / K / LDH / Na / PL / RALB / TBIL / TC / TG / TP / gamma-GTP: tissue Plasma
smiles,measurement,setting,value
COc1ccc(O)c(C(C)(C)C)c1.COc1ccc(O)cc1C(C)(C)C [BUTYLATED HYDROXYANISOLE],TERMINAL_BW,"72 h, time 3 day",219.2 g
same,APTT,"72 h, time 3 day",15.4 s
same,Bas,"72 h, time 3 day",0.3%
same,Eos,"72 h, time 3 day",1.2%
same,Fbg,"72 h, time 3 day",275.8 mg/dL
same,Hb,"72 h, time 3 day",12.7 g/dL
same,Ht,"72 h, time 3 day",37.2%
same,Lym,"72 h, time 3 day",78.2%
same,MCH,"72 h, time 3 day",20.4 pg
same,MCHC,"72 h, time 3 day",34.2%
same,MCV,"72 h, time 3 day",59.9 fL
same,Mono,"72 h, time 3 day",2.2%
same,Neu,"72 h, time 3 day",17.1%
same,PT,"72 h, time 3 day",11.5 s
same,Plat,"72 h, time 3 day",148 x10_4/uL
same,RBC,"72 h, time 3 day",623.6 x10_4/ul
same,Ret,"72 h, time 3 day",4.9%
same,WBC,"72 h, time 3 day",112 x10_2/uL
same,KIDNEY_L,"72 h, time 3 day",0.9 g
same,KIDNEY_R,"72 h, time 3 day",0.9 g
same,KIDNEY_TOTAL,"72 h, time 3 day",1.7 g
same,LIVER,"72 h, time 3 day",12.2 g
same,A/G,"72 h, time 3 day",0.8
same,ALP,"72 h, time 3 day",1525.6 IU/L
same,ALT,"72 h, time 3 day",36.4 IU/L
same,AST,"72 h, time 3 day",64.8 IU/L
same,BUN,"72 h, time 3 day",15.8 mg/dL
same,CRE,"72 h, time 3 day",0.2 mg/dL
same,Ca,"72 h, time 3 day",11.2 mg/dL
same,Cl,"72 h, time 3 day",106.4 meq/L
same,DBIL,"72 h, time 3 day",0.02 mg/dL
same,GLC,"72 h, time 3 day",171.4 mg/dL
same,IP,"72 h, time 3 day",6.3 mg/dL
same,K,"72 h, time 3 day",4.3 meq/L
same,LDH,"72 h, time 3 day",60.6 IU/L
same,Na,"72 h, time 3 day",142.2 meq/L
same,PL,"72 h, time 3 day",173.4 mg/dL
same,RALB,"72 h, time 3 day",2.7 g/dL
same,TBIL,"72 h, time 3 day",0.064 mg/dL
same,TC,"72 h, time 3 day",95.6 mg/dL
same,TG,"72 h, time 3 day",89.8 mg/dL
same,TP,"72 h, time 3 day",6 g/dL
same,gamma-GTP,"72 h, time 3 day",1.2 IU/L
same,TERMINAL_BW,"[…], time 7 day",261 g
same,TERMINAL_BW,"[…], time 14 day",311.5 g
same,TERMINAL_BW,"[…], time 28 day",401.5 g
same,APTT,"[…], time 7 day",15.7 s
same,Bas,"[…], time 7 day",0.2%
same,Eos,"[…], time 7 day",0.6%
same,Fbg,"[…], time 7 day",300.8 mg/dL
same,Hb,"[…], time 7 day",13 g/dL
same,Ht,"[…], time 7 day",38.5%
same,Lym,"[…], time 7 day",74.3%
same,MCH,"[…], time 7 day",20.4 pg
same,MCHC,"[…], time 7 day",33.7%
same,MCV,"[…], time 7 day",60.4 fL
same,Mono,"[…], time 7 day",2.4%
same,Neu,"[…], time 7 day",21.7%
same,PT,"[…], time 7 day",11.5 s
same,Plat,"[…], time 7 day",154.1 x10_4/uL
same,RBC,"[…], time 7 day",638 x10_4/ul
same,Ret,"[…], time 7 day",6.1%
same,WBC,"[…], time 7 day",97.1 x10_2/uL
same,APTT,"[…], time 14 day",15.2 s
same,Bas,"[…], time 14 day",0.2%
same,Eos,"[…], time 14 day",0.7%
same,Fbg,"[…], time 14 day",319.4 mg/dL
same,Hb,"[…], time 14 day",13.7 g/dL
same,Ht,"[…], time 14 day",39.7%
same,Lym,"[…], time 14 day",77.1%
same,MCH,"[…], time 14 day",19.7 pg
same,MCHC,"[…], time 14 day",34.6%
same,MCV,"[…], time 14 day",57 fL
same,Mono,"[…], time 14 day",2.2%
same,Neu,"[…], time 14 day",19.3%
same,PT,"[…], time 14 day",11.5 s
same,Plat,"[…], time 14 day",140.8 x10_4/uL
same,RBC,"[…], time 14 day",696.8 x10_4/ul
same,Ret,"[…], time 14 day",3.8%
same,WBC,"[…], time 14 day",87.1 x10_2/uL
same,APTT,"[…], time 28 day",19.5 s
same,Bas,"[…], time 28 day",0.5%
same,Eos,"[…], time 28 day",0.6%
same,Fbg,"[…], time 28 day",303.6 mg/dL
same,Hb,"[…], time 28 day",14.9 g/dL
same,Ht,"[…], time 28 day",41.2%
same,Lym,"[…], time 28 day",75.9%
same,MCH,"[…], time 28 day",19.7 pg
same,MCHC,"[…], time 28 day",36%
same,MCV,"[…], time 28 day",54.7 fL
same,Mono,"[…], time 28 day",1.7%
same,Neu,"[…], time 28 day",20.7%
same,PT,"[…], time 28 day",12.1 s
same,Plat,"[…], time 28 day",114.8 x10_4/uL
same,RBC,"[…], time 28 day",753.2 x10_4/ul
same,Ret,"[…], time 28 day",2.2%
same,WBC,"[…], time 28 day",131.8 x10_2/uL
same,KIDNEY_L,"[…], time 7 day",1 g
same,KIDNEY_R,"[…], time 7 day",1 g
same,KIDNEY_TOTAL,"[…], time 7 day",2.1 g
same,KIDNEY_L,"[…], time 14 day",1.1 g
same,KIDNEY_R,"[…], time 14 day",1.1 g
same,KIDNEY_TOTAL,"[…], time 14 day",2.2 g
same,KIDNEY_L,"[…], time 28 day",1.4 g
same,KIDNEY_R,"[…], time 28 day",1.3 g
same,KIDNEY_TOTAL,"[…], time 28 day",2.7 g
same,LIVER,"[…], time 7 day",13.6 g
same,LIVER,"[…], time 14 day",15.1 g
same,LIVER,"[…], time 28 day",18.5 g
same,A/G,"[…], time 7 day",0.8
same,ALP,"[…], time 7 day",1426 IU/L
same,ALT,"[…], time 7 day",33.8 IU/L
same,AST,"[…], time 7 day",59.8 IU/L
same,BUN,"[…], time 7 day",15.2 mg/dL
same,CRE,"[…], time 7 day",0.2 mg/dL
same,Ca,"[…], time 7 day",11.3 mg/dL
same,Cl,"[…], time 7 day",105 meq/L
same,DBIL,"[…], time 7 day",0.018 mg/dL
same,GLC,"[…], time 7 day",176 mg/dL
same,IP,"[…], time 7 day",7.2 mg/dL
same,K,"[…], time 7 day",3.9 meq/L
same,LDH,"[…], time 7 day",61.2 IU/L
same,Na,"[…], time 7 day",142.8 meq/L
same,PL,"[…], time 7 day",163 mg/dL
same,RALB,"[…], time 7 day",2.7 g/dL
same,TBIL,"[…], time 7 day",0.054 mg/dL
same,TC,"[…], time 7 day",91 mg/dL
same,TG,"[…], time 7 day",100.2 mg/dL
same,TP,"[…], time 7 day",6.1 g/dL
same,gamma-GTP,"[…], time 7 day",1 IU/L
same,A/G,"[…], time 14 day",0.8
same,ALP,"[…], time 14 day",1317.4 IU/L
same,ALT,"[…], time 14 day",34.6 IU/L
same,AST,"[…], time 14 day",58.6 IU/L
same,BUN,"[…], time 14 day",15.8 mg/dL
same,CRE,"[…], time 14 day",0.2 mg/dL
same,Ca,"[…], time 14 day",10.9 mg/dL
same,Cl,"[…], time 14 day",106.6 meq/L
same,DBIL,"[…], time 14 day",0.012 mg/dL
same,GLC,"[…], time 14 day",187 mg/dL
same,IP,"[…], time 14 day",6.5 mg/dL
same,K,"[…], time 14 day",3.5 meq/L
same,LDH,"[…], time 14 day",49.6 IU/L
same,Na,"[…], time 14 day",144.4 meq/L
same,PL,"[…], time 14 day",156.6 mg/dL
same,RALB,"[…], time 14 day",2.8 g/dL
same,TBIL,"[…], time 14 day",0.046 mg/dL
same,TC,"[…], time 14 day",88.2 mg/dL
same,TG,"[…], time 14 day",88.8 mg/dL
same,TP,"[…], time 14 day",6.3 g/dL
same,gamma-GTP,"[…], time 14 day",1.4 IU/L
same,A/G,"[…], time 28 day",0.7
same,ALP,"[…], time 28 day",844.2 IU/L
same,ALT,"[…], time 28 day",32.8 IU/L
same,AST,"[…], time 28 day",52.6 IU/L
same,BUN,"[…], time 28 day",16.2 mg/dL
same,CRE,"[…], time 28 day",0.3 mg/dL
same,Ca,"[…], time 28 day",11 mg/dL
same,Cl,"[…], time 28 day",103.8 meq/L
same,DBIL,"[…], time 28 day",0.012 mg/dL
same,GLC,"[…], time 28 day",189.6 mg/dL
same,IP,"[…], time 28 day",6.1 mg/dL
same,K,"[…], time 28 day",3.5 meq/L
same,LDH,"[…], time 28 day",53.6 IU/L
same,Na,"[…], time 28 day",144.4 meq/L
same,PL,"[…], time 28 day",167.2 mg/dL
same,RALB,"[…], time 28 day",2.7 g/dL
same,TBIL,"[…], time 28 day",0.056 mg/dL
same,TC,"[…], time 28 day",91.4 mg/dL
same,TG,"[…], time 28 day",132 mg/dL
same,TP,"[…], time 28 day",6.5 g/dL
same,gamma-GTP,"[…], time 28 day",1.4 IU/L
